Like-named read-outs stand apart in the source and are kept apart here.
What was measured:
[1] = molecular target: T1, human ADAMTS-5 (Homo sapiens (Human), UniProt Q9UNA0); conditions: read-out: hADAMTS-5 potency IC50
[2] = molecular target: human MMP13 (Homo sapiens (Human), UniProt P45452); conditions: read-out: hMMP-13 potency IC50
Procedure: Human MMP13 is preactivated by incubated the enzyme in the same buffer complemented with 1 mM freshly prepared p-Aminophenylmercuric acetate (AMPA) for 1 hour at 37° C.

[3] = molecular target: human TACE (Homo sapiens (Human), UniProt P78536); conditions: read-out: TACE potency IC50
[4] = molecular target: T1, human ADAMTS-5; conditions: read-out: hADAMTS-5 potency IC50; remark: listed apart in the source
Procedure: Finally, the fluorescence is read on the Envision (Perkin Elmer) after an incubation of 90 min at 37° C.

[5] = molecular target: rnADAMTS-5 (1-564-6H) (Rattus norvegicus, UniProt Q6TY19); conditions: read-out: Rat ADAMTS-5 potency IC50

human TACE, sequence (P78536 whole entry, looked up, change not shown): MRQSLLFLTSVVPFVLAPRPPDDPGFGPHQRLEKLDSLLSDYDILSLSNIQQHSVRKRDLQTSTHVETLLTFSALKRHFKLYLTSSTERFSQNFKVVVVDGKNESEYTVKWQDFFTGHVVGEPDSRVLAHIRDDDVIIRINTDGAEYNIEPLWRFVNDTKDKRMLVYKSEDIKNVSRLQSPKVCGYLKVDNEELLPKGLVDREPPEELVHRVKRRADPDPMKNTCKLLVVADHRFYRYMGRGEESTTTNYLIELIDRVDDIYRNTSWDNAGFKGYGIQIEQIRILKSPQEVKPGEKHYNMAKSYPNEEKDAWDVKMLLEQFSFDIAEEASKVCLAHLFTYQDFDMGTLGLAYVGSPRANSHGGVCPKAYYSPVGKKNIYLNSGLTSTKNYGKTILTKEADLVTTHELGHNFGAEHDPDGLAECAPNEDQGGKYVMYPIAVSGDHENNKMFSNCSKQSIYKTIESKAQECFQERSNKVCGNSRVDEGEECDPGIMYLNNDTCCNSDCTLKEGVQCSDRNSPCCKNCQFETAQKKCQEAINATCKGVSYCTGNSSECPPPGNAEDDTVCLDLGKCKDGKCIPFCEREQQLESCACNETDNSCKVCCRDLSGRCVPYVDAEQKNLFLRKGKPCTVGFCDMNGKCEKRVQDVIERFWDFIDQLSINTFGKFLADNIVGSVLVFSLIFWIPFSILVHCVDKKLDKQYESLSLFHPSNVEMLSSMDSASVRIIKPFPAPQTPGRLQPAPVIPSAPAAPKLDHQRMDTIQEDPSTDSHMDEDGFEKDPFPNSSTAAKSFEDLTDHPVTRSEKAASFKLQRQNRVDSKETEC
T1 sequence (Q9UNA0 262-930): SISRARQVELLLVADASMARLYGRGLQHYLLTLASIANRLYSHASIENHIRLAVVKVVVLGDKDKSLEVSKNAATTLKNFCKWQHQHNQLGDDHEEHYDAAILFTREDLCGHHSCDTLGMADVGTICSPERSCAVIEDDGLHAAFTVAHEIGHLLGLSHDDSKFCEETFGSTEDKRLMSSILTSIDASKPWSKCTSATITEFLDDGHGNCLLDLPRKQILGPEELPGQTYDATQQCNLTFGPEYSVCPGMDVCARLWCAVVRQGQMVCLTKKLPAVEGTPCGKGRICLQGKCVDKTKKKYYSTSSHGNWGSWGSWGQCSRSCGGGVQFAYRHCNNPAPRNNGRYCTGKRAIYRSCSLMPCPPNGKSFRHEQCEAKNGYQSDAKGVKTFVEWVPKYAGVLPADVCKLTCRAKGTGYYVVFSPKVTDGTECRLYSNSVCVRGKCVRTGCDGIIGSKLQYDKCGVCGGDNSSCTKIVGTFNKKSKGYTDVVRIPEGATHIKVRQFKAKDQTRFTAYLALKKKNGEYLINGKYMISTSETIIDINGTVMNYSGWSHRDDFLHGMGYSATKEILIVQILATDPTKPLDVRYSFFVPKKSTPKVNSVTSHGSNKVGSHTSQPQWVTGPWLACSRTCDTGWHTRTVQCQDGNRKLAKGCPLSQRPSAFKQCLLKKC

## Cc1ccc(N2CCN(C(=O)CCC3(c4ccccc4)NC(=O)NC3=O)CC2)c(C)c1 (stereo not shown) [compound 31, 5-[3-[4-(2,4-dimethylphenyl)piperazin-1-yl]-3-oxo-propyl]-5-phenyl-imidazolidine-2,4-dione]
[1]
  IC50: 1060 nM

## Cc1ccc(N2CCN(C(=O)CCC3(C)NC(=O)NC3=O)CC2)c(C)c1 (stereo not shown) [compound 38, 5-[3-[4-(2,4-dimethylphenyl)piperazin-1-yl]-3-oxo-propyl]-5-methyl-imidazolidine-2,4-dione]
[1]
  IC50: > 4000 nM

## CC1(CCC(=O)N2CCN(c3cccc(Cl)c3Cl)CC2)NC(=O)NC1=O (stereo not shown) [compound 41, 5-[3-[4-(2,3-dichlorophenyl)piperazin-1-yl]-3-oxo-propyl]-5-methyl-imidazolidine-2,4-dione]
[1]
  IC50: 2660 nM

## CC1(CCC(=O)N2CCN(c3ccccn3)CC2)NC(=O)NC1=O (stereo not shown) [compound 42, 5-methyl-5-[3-oxo-3-[4-(2-pyridyl)piperazin-1-yl]propyl]imidazolidine-2,4-dione]
[1]
  IC50: > 3980 nM

## CC1(CCC(=O)N2CCN(c3cccc(Br)c3)CC2)NC(=O)NC1=O (stereo not shown) [compound 48, 5-[3-[4-(3-bromophenyl)piperazin-1-yl]-3-oxo-propyl]-5-methyl-imidazolidine-2,4-dione]
[1]
  IC50: 391 nM

## CN(C)CCC1(CCC(=O)N2CCN(c3cc(Cl)cc(Cl)c3)CC2)NC(=O)NC1=O (stereo not shown) [compound 58, 5-[3-[4-(3,5-dichlorophenyl)piperazin-1-yl]-3-oxo-propyl]-5-(2-dimethylaminoethyl)imidazolidine-2,4-dione]
[1]
  IC50: > 20000 nM

## CC1(CCC(=O)N2CCN(c3nccs3)CC2)NC(=O)NC1=O (stereo not shown) [compound 59, 5-methyl-5-[3-oxo-3-(4-thiazol-2-ylpiperazin-1-yl)propyl]imidazolidine-2,4-dione]
[1]
  IC50: > 20000 nM

## Cc1ccc(F)cc1N1CCN(C(=O)C(C)CC2(C)NC(=O)NC2=O)CC1 (stereo not shown) [compound 175, 5-[3-[4-(5-fluoro-2-methyl-phenyl)piperazin-1-yl]-2-methyl-3-oxo-propyl]-5-methyl-imidazolidine-2,4-dione]
[2]
  IC50: > 20000 nM
[3]
  IC50: 251 nM
[4]
  IC50: 25 nM
[5]
  IC50: 22 nM

## Cc1c(Cl)cccc1N1CCN(C(=O)C(C)CC2(C3CC3)NC(=O)NC2=O)CC1 (stereo not shown) [compound 176, 5-[3-[4-(3-chloro-2-methyl-phenyl)piperazin-1-yl]-2-methyl-3-oxo-propyl]-5-cyclopropyl-imidazolidine-2,4-dione]
[2]
  IC50: > 20000 nM
[3]
  IC50: 1230 nM
[4]
  IC50: 16 nM
[5]
  IC50: 7 nM

## Cc1c(Cl)cc(Cl)cc1N1CCN(C(=O)CCC2(C3CC3)NC(=O)NC2=O)C[C@@H]1C (stereo partly drawn) [compound 177, 5-cyclopropyl-5-[3-[(3S)-4-(3,5-dichloro-2-methyl-phenyl)-3-methyl-piperazin-1-yl]-3-oxo-propyl]imidazolidine-2,4-dione]
[2]
  IC50: > 20000 nM
[3]
  IC50: 1990 nM
[4]
  IC50: 78 nM
[5]
  IC50: 40 nM

## NCC1(CCC(=O)N2CCN(c3cc(Cl)cc(Cl)c3)CC2)NC(=O)NC1=O (stereo not shown) [compound 180, 5-(aminomethyl)-5-[3-[4-(3,5-dichlorophenyl)piperazin-1-yl]-3-oxo-propyl]imidazolidine-2,4-dione]
[2]
  IC50: > 20000 nM
[3]
  IC50: > 4000 nM
[4]
  IC50: 177 nM
[5]
  IC50: 241 nM

## COCCNC(=O)CC1(CCC(=O)N2CCN(c3cc(Cl)cc(Cl)c3)CC2)NC(=O)NC1=O (stereo not shown) [compound 187, 2-[4-[3-[4-(3,5-dichlorophenyl)piperazin-1-yl]-3-oxo-propyl]-2,5-dioxo-imidazolidin-4-yl]-N-(2-methoxyethyl)acetamide]
[2]
  IC50: 2610 nM
[3]
  IC50: > 20000 nM
[4]
  IC50: 456 nM
[5]
  IC50: 396 nM

## CC(CC1(C2CC2)NC(=O)NC1=O)C(=O)N1CCN(c2cccc(F)c2)[C@@H](C)C1 (stereo partly drawn) [compound 190, 5-cyclopropyl-5-[3-[(3S)-4-(3-fluorophenyl)-3-methyl-piperazin-1-yl]-2-methyl-3-oxo-propyl]imidazolidine-2,4-dione]
[2]
  IC50: 3060 nM
[3]
  IC50: > 20000 nM
[4]
  IC50: 22 nM
[5]
  IC50: 15 nM

## CC(CC1(C2CC2)NC(=O)NC1=O)C(=O)N1CCN(c2ccc(F)c(F)c2)[C@@H](C)C1 (stereo partly drawn) [compound 191, 5-cyclopropyl-5-[3-[(3S)-4-(3,4-difluorophenyl)-3-methyl-piperazin-1-yl]-2-methyl-3-oxo-propyl]imidazolidine-2,4-dione]
[2]
  IC50: 1880 nM
[3]
  IC50: > 20000 nM
[4]
  IC50: 20 nM
[5]
  IC50: 11 nM

## CC(CC1(C2CC2)NC(=O)NC1=O)C(=O)N1CCN(c2ccc(F)c(Cl)c2)[C@@H](C)C1 (stereo partly drawn) [compound 192, 5-[3-[(3S)-4-(3-chloro-4-fluoro-phenyl)-3-methyl-piperazin-1-yl]-2-methyl-3-oxo-propyl]-5-cyclopropyl-imidazolidine-2,4-dione]
[2]
  IC50: 865 nM
[3]
  IC50: > 4000 nM
[4]
  IC50: 11 nM
[5]
  IC50: 6 nM

## CC(CC1(C2CC2)NC(=O)NC1=O)C(=O)N1CCN(c2ccc(Cl)cc2)[C@@H](C)C1 (stereo partly drawn) [compound 193, 5-[3-[(3S)-4-(4-chlorophenyl)-3-methyl-piperazin-1-yl]-2-methyl-3-oxo-propyl]-5-cyclopropyl-imidazolidine-2,4-dione]
[2]
  IC50: 433 nM
[3]
  IC50: > 20000 nM
[4]
  IC50: 23 nM
[5]
  IC50: 7 nM

## CC(CC1(C2CC2)NC(=O)NC1=O)C(=O)N1CCN(c2cc(F)cc(Cl)c2)[C@@H](C)C1 (stereo partly drawn) [compound 194, 5-[3-[(3S)-4-(3-chloro-5-fluoro-phenyl)-3-methyl-piperazin-1-yl]-2-methyl-3-oxo-propyl]-5-cyclopropyl-imidazolidine-2,4-dione]
[2]
  IC50: 952 nM
[3]
  IC50: > 4000 nM
[4]
  IC50: 11 nM
[5]
  IC50: 5 nM

## CC(CC1(C2CNC2)NC(=O)NC1=O)C(=O)N1CCN(c2cc(Cl)cc(Cl)c2)CC1 (stereo not shown) [compound 196]
[2]
  IC50: > 20000 nM
[3]
  IC50: > 3930 nM
[4]
  IC50: 102 nM
[5]
  IC50: 104 nM

## CSCCC1(CC(C)C(=O)N2CCN(c3cc(Cl)cc(Cl)c3)CC2)NC(=O)NC1=O (stereo not shown) [compound 197, 5-[3-[4-(3,5-dichlorophenyl)piperazin-1-yl]-2-methyl-3-oxo-propyl]-5-(2-methylsulfanylethyl)imidazolidine-2,4-dione]
[2]
  IC50: > 4000 nM
[3]
  IC50: 134 nM
[4]
  IC50: 26 nM
[5]
  IC50: 21 nM

## CC(CC1(CC2CCN(C(=O)OC(C)(C)C)CC2)NC(=O)NC1=O)C(=O)N1CCN(c2cc(Cl)cc(Cl)c2)CC1 (stereo not shown) [compound 198, tert-butyl 4-[[4-[3-[4-(3,5-dichlorophenyl)piperazin-1-yl]-2-methyl-3-oxo-propyl]-2,5-dioxo-imidazolidin-4-yl]methyl]piperidine-1-carboxylate]
[2]
  IC50: 1940 nM
[3]
  IC50: 817 nM
[4]
  IC50: 52 nM
[5]
  IC50: 38 nM

## CC(CC1(C2CCOCC2)NC(=O)NC1=O)C(=O)N1CCN(c2cc(Cl)cc(Cl)c2)CC1 (stereo not shown) [compound 199, 5-[3-[4-(3,5-dichlorophenyl)piperazin-1-yl]-2-methyl-3-oxo-propyl]-5-tetrahydropyran-4-yl-imidazolidine-2,4-dione]
[2]
  IC50: > 20000 nM
[3]
  IC50: 1050 nM
[4]
  IC50: 62 nM
[5]
  IC50: 48 nM

## COC(CC1(C2CC2)NC(=O)NC1=O)C(=O)N1CCN(c2cc(Cl)cc(Cl)c2)CC1 (stereo not shown) [compound 206, 5-cyclopropyl-5-[3-[4-(3,5-dichlorophenyl)piperazin-1-yl]-2-methoxy-3-oxo-propyl]imidazolidine-2,4-dione]
[2]
  IC50: > 4000 nM
[3]
  IC50: > 4000 nM
[4]
  IC50: 60 nM
[5]
  IC50: 40 nM

## C[C@H]1CN(C(=O)CC[C@@]2(C3CC3)NC(=O)NC2=O)CCN1c1ccc(Cl)c(Cl)c1 [compound 207, (5S)-5-cyclopropyl-5-[3-[(3S)-4-(3,4-dichlorophenyl)-3-methyl-piperazin-1-yl]-3-oxo-propyl]imidazolidine-2,4-dione]
[2]
  IC50: 2880 nM
[3]
  IC50: > 4000 nM
[4]
  IC50: 12 nM
[5]
  IC50: 6 nM

## CN(C)c1cccc(N2CCN(C(=O)CCC3(C4CC4)NC(=O)NC3=O)CC2)c1 (stereo not shown) [compound 209, 5-cyclopropyl-5-[3-[4-[3-(dimethylamino)phenyl]piperazin-1-yl]-3-oxo-propyl]imidazolidine-2,4-dione]
[2]
  IC50: > 20000 nM
[3]
  IC50: > 4000 nM
[4]
  IC50: 836 nM
[5]
  IC50: 565 nM

## CC(CC1(C)NC(=O)NC1=O)C(=O)N1CCN(c2ccc(F)c(F)c2)CC1 (stereo not shown) [compound 211, 5-[3-[4-(3,4-difluorophenyl)piperazin-1-yl]-2-methyl-3-oxo-propyl]-5-methyl-imidazolidine-2,4-dione]
[2]
  IC50: 377 nM
[3]
  IC50: 3740 nM
[4]
  IC50: 48 nM
[5]
  IC50: 23 nM

## CC(CC1(C)NC(=O)NC1=O)C(=O)N1CCN(c2cc(F)cc(F)c2)[C@@H](C)C1 (stereo partly drawn) [compound 213, 5-[3-[(3S)-4-(3,5-difluorophenyl)-3-methyl-piperazin-1-yl]-2-methyl-3-oxo-propyl]-5-methyl-imidazolidine-2,4-dione]
[2]
  IC50: > 4000 nM
[3]
  IC50: > 20000 nM
[4]
  IC50: 30 nM
[5]
  IC50: 21 nM

## Cc1ccc(F)cc1N1CCN(C(=O)C(C)CC2(C)NC(=O)NC2=O)C[C@@H]1C (stereo partly drawn) [compound 216, 5-[3-[(3S)-4-(5-fluoro-2-methyl-phenyl)-3-methyl-piperazin-1-yl]-2-methyl-3-oxo-propyl]-5-methyl-imidazolidine-2,4-dione]
[2]
  IC50: > 20000 nM
[3]
  IC50: > 4000 nM
[4]
  IC50: 305 nM
[5]
  IC50: 250 nM

## CC(CC1(C)NC(=O)NC1=O)C(=O)N1CCN(c2ccc(F)c(Cl)c2)[C@@H](C)C1 (stereo partly drawn) [compound 405, 5-{3-[(S)-4-(3-Chloro-4-fluoro-phenyl)-3-methyl-piperazin-1-yl]-2-methyl-3-oxo-propyl}-5-methyl-imidazolidine-2,4-dione]
[2]
  IC50: 2330 nM
[3]
  IC50: > 4000 nM
[4]
  IC50: 22 nM
[5]
  IC50: 18 nM

— patent publication US9926281B2 (priority 2014, dated 2018)
